Assay results taken from the supplement of paper PMC10307832.

Tests used:
Test in all cases: relative viability (nuclei count vs DMSO), 5 days (fraction); higher = more cells survive
BI-D1870 + Decitabine = compound: CC(C)CCN1c2nc(Nc3cc(F)c(O)c(F)c3)ncc2N(C)C(=O)C1C [BI-D1870] + Nc1ncn([C@H]2C[C@H](O)[C@@H](CO)O2)c(=O)n1 [Decitabine] (partner 2 µM)
Method in brief: (§1)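 Medians of duplicate plates are given as relative viability. That measure is the nuclei count in treated wells divided by the count in vehicle wells. Counts were taken on 4× images of lung cancer cell lines in 1536-well plates, 5 days after pin-tool dosing the day after seeding with one drug alone or a fixed anchor-drug dose plus five library-drug doses (not always all listed) in √10 steps.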

Zebularine + Tozasertib = compound: O=c1ncccn1[C@@H]1O[C@H](CO)[C@@H](O)[C@H]1O [Zebularine] + Cc1cc(Nc2cc(N3CCN(C)CC3)nc(Sc3ccc(NC(=O)C4CC4)cc3)n2)n[nH]1 [Tozasertib] (partner 0.1 µM)
Method in brief: as §1

Zebularine + Vorinostat = compound: O=c1ncccn1[C@@H]1O[C@H](CO)[C@@H](O)[C@H]1O [Zebularine] + O=C(CCCCCCC(=O)Nc1ccccc1)NO [Vorinostat] (partner 1 µM)
Method in brief: as §1

BI-D1870 + Crizotinib = compound: CC(C)CCN1c2nc(Nc3cc(F)c(O)c(F)c3)ncc2N(C)C(=O)C1C [BI-D1870] + C[C@@H](Oc1cc(-c2cnn(C3CCNCC3)c2)cnc1N)c1c(Cl)ccc(F)c1Cl [Crizotinib] (partner 1 µM)
Method in brief: as §1

| Cell Line | relative viability (BI-D1870 + Decitabine; first compound 0.04 µM) | relative viability (BI-D1870 + Decitabine; first compound 0.1265 µM) | relative viability (BI-D1870 + Decitabine; first compound 0.4 µM) | relative viability (BI-D1870 + Decitabine; first compound 1.265 µM) | relative viability (BI-D1870 + Decitabine; first compound 4 µM) | relative viability (Zebularine + Tozasertib; first compound 1 µM) | relative viability (Zebularine + Tozasertib; first compound 3.162 µM) | relative viability (Zebularine + Tozasertib; first compound 10 µM) | relative viability (Zebularine + Tozasertib; first compound 31.62 µM) | relative viability (Zebularine + Tozasertib; first compound 100 µM) | relative viability (Zebularine + Vorinostat; first compound 1 µM) | relative viability (Zebularine + Vorinostat; first compound 3.162 µM) | relative viability (Zebularine + Vorinostat; first compound 31.62 µM) | relative viability (Zebularine + Vorinostat; first compound 100 µM) | relative viability (BI-D1870 + Crizotinib; first compound 0.04 µM) | relative viability (BI-D1870 + Crizotinib; first compound 0.1265 µM) | relative viability (BI-D1870 + Crizotinib; first compound 0.4 µM) | relative viability (BI-D1870 + Crizotinib; first compound 1.265 µM) | relative viability (BI-D1870 + Crizotinib; first compound 4 µM) | relative viability (Zebularine + Vorinostat; first compound 10 µM) |
| --- | --- | --- | --- | --- | --- | --- | --- | --- | --- | --- | --- | --- | --- | --- | --- | --- | --- | --- | --- | --- |
| SW 900 | 0.479 | 0.47 | 0.472 | 0.534 | 0.498 | 0.659 | 0.548 | 0.445 | 0.478 | 0.371 | 0.497 | 0.667 | 0.67 | 0.503 | – | – | – | – | – | – |
| A549 | 0.213 | 0.282 | 0.27 | 0.288 | 0.236 | – | – | – | – | – | – | – | – | – | 0.873 | 0.708 | 0.76 | 0.618 | 0.158 | – |
| NCI-H1792 | 0.558 | 0.525 | 0.596 | 0.851 | 0.666 | – | – | – | – | – | – | – | – | – | 1.06 | 0.994 | 0.908 | 1.13 | 0.858 | – |
| NCI-H1703 | – | – | – | – | – | – | – | – | – | – | – | – | – | – | 1.16 | 0.613 | 0.467 | 0.756 | 0.356 | – |
| Calu-6 | – | – | – | – | – | – | – | – | – | – | – | – | – | – | 0.883 | 0.741 | 0.886 | 0.597 | 0.629 | – |
| NCI-H1648 | 0.463 | 0.505 | – | 0.527 | 0.578 | 0.551 | 0.418 | 0.407 | 0.342 | 0.379 | 0.554 | 0.494 | 0.262 | 0.48 | – | – | – | – | – | 0.479 |
| EBC-1 | – | – | – | – | – | – | – | – | – | – | – | – | – | – | 0.16 | 0.182 | 0.209 | 0.188 | 0.134 | – |
| NCI-H1299 | – | – | – | – | – | – | – | – | – | – | – | – | – | – | 0.971 | 0.902 | 0.965 | 0.885 | 0.814 | – |
| NCI-H2228 | – | – | – | – | – | 0.289 | 0.168 | 0.229 | 0.246 | 0.195 | 0.825 | 0.671 | 0.412 | 0.377 | 0.645 | 0.479 | 0.374 | 0.435 | 0.329 | – |
| NCI-H2342 | 0.714 | 0.69 | 0.793 | 0.891 | 0.795 | 0.451 | 0.4 | 0.446 | 0.476 | 0.469 | 0.863 | 0.642 | 0.679 | 0.712 | – | – | – | – | – | 0.674 |
| IA-LM | – | – | – | – | – | – | – | – | – | – | 1.01 | 0.697 | 1.02 | 0.854 | 1.19 | 0.942 | 0.845 | 0.569 | 0.176 | 0.365 |
| NCI-H1793 | 0.513 | 0.439 | 0.528 | 0.681 | 0.632 | 0.401 | 0.354 | – | 0.206 | 0.174 | 0.819 | 0.895 | 0.448 | 0.328 | – | – | – | – | – | 0.41 |
| CAL-12T | – | – | – | – | – | 0.379 | 0.369 | 0.241 | 0.379 | 0.247 | 1.16 | 0.96 | 0.897 | 0.54 | 0.598 | 0.53 | 0.662 | 0.506 | 0.283 | 0.452 |
